Source: patent US20180201899A1, “IPSC-EC PERFORMANCE ENHANCEMENT VIA SIRT1 OVEREXPRESSION” (Northwestern University, priority 2015, published 2018)

System: iPSC-ECs
Assay: Senescence associated β-galactosidase staining
Type: cell-based
Description: Nitric oxide (NO) production was assessed via 4,5-diaminofluorescein.diacetate (DAF 2-DA) assay (Life Technologies). Cell mitogenic effect in response to VEGF (100 ng/ml) was assessed via MTT assay (Sigma-Aldrich) after treating cells in serum-free (starvation) medium, or starvation medium containing 100 ng/ml VEGF for 24 hours. Cell proliferation was determined by counting cell number every seven days after lentiviral transduction using a hemocytometer by excluding dead cells with Trypan blue. […] All results were normalized to cell number via Alamar blue assay (Sigma-Aldrich).Cellular senescence assay kit (Cell Signaling Technology, Danvers, Mass.) was used to stain for senescence associated β-galactosidase (β-gal) in the presence or absence of Ex-527 (10 μM), a SIRT1 inhibitor, and the percentage of β-gal positive cells was quantified with ImageJ. […]
Cellular senescence assay kit (Cell Signaling Technology, Danvers, Mass.) was used to stain for β-galactosidase (β-gal) in the presence or absence of Ex-527 (10 μM), a SIRT1 inhibitor (18), and the percentage of β-gal positive cells was quantified with ImageJ. […] Cell proliferation was determined by counting cell number every seven days after lentiviral transduction using a hemocytometer by excluding dead cells with Trypan blue. […] NO production was assessed via 4,5-diaminofluorescein.diacetate (DAF 2-DA) assay (Life Technologies). […]

NC(=O)C1CCCc2c1[nH]c1ccc(Cl)cc21 (centres unmarked) [Ex-527]
β-gal+ (senescent) cells (10 μM Ex-527, LV-empty transduced cells, passage 6): 56.0±6.2%
effect on percentage of senescent cells (10 μM Ex-527, all lentiviral groups): higher percentage of senescent cells in all groups
